In ChEMBL document CHEMBL4837186, “Structural Elucidation of Garcipaucinones A and B From Garcinia paucinervis Using Quantum Chemical Calculations” (J Nat Prod, 2021):

Legend:
Type in all cases: functional, cell-based
MCF7 = experiment: Cytotoxicity against human MCF7 cells assessed as reduction in cell viability after 24 hrs by CCK8 assay; settings: MCF7, 24 h
HepG2 = experiment: Cytotoxicity against human HepG2 cells assessed as reduction in cell viability after 24 hrs by CCK8 assay; settings: HepG2, 24 h
RAW264.7 = experiment: Anti-inflammatory activity in mouse RAW264.7 cells assessed as inhibition of LPS-induced NO production after 24 hrs by Griess reagent-based assay; settings: RAW264.7, 24 h
T98G = experiment: Cytotoxicity against human T98 cells assessed as reduction in cell viability after 24 hrs by CCK8 assay

## CC(C)=CCC/C(C)=C/CC/C(C)=C/CC[C@]1(C)CCC2=C(O1)[C@]1(C)C[C@@](O)(Oc3c1occc3=O)C2=O
MCF7
  IC50: > 20 µM
HepG2
  IC50: > 20 µM
RAW264.7
  IC50: > 20 µM
T98G
  IC50: > 20 µM

## CC(C)=CCC/C(C)=C/CC/C(C)=C/CC[C@]1(C)CCC2=C(O1)[C@@]1(C)C[C@](O)(Oc3c1occc3=O)C2=O
MCF7
  IC50: > 20 µM
HepG2
  IC50: > 20 µM
RAW264.7
  IC50: > 20 µM
T98G
  IC50: > 20 µM

## C[C@@H]1C[C@H]2[C@@H]3CCC4=CC(=O)C=C[C@]4(C)[C@@]3(F)[C@@H](O)C[C@]2(C)[C@@]1(O)C(=O)CO [DEXAMETHASONE]
RAW264.7
  IC50: 8.28 µM
